This note sets out measurements from patent publication US8586530B2, “Modulation of inhibition of ferrochelatase by N-methyl protoporphyrin” (University of South Florida, priority 2006, dated 2013).

This assay concerns the target T1, wild-type, murine ferrochelatase (Mus musculus, UniProt P22315).
T1 construct: In wild-type, murine, mature ferrochelatase, five tryptophan residues; penta-histidine tag (N); made in house; host or cells: E. coli BL21(DE3)
T1 sequence (P22315 54-422): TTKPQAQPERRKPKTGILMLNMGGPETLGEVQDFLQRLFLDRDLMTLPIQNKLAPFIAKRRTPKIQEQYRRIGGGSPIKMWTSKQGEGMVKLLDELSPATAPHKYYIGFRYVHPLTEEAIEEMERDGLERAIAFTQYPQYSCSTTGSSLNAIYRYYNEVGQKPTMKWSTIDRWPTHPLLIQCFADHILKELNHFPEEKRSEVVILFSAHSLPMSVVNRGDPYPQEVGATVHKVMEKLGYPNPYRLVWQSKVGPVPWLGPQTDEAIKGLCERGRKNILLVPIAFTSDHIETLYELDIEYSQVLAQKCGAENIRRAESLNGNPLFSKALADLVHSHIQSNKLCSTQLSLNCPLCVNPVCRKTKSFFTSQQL
The assay is described as follows: Fluorescence titration of NMPP binding (quenching of intrinsic protein fluorescence). To be noted: 10 mM Tris-acetate pH 8, 0.05% Tween-80, read-out: dissociation constant (Kd) of NMPP. On the procedure:
Aliquots of NMPP were added to a solution of enzyme in 10 mM Tris-acetate, pH 8 containing 0.05% Tween-80 and incubated on ice for 1 hr. The intrinsic protein fluorescence was monitored at 331 nm (λex=283 nm). The Kd value for NMPP was determined by fitting the data to Equation 3. The enzymes used in each set were: A. wild-type ferrochelatase (40 nM); B. P255R (250 nM); C. P255G (120 nM).
The equilibrium constant for NMPP binding to ferrochelatase could be determined from the change in intrinsic protein fluorescence upon ligand addition. […]
Fluorescence Titration Measurements. Equilibrium fluorescence measurements were made using a Shimadzu RF-5301PC fluorimeter at 23° C. with excitation and emission wavelengths at 283 nm and 331 nm, respectively. The decrease in protein fluorescence, due to NMPP binding, was monitored. […] In a typical titration experiment, aliquots of the NMPP stock were added to the protein solution and, upon incubation on ice for 1 h, the quenching in fluorescence was monitored as described above. […] The observed fluorescence intensity was plotted against NMPP concentration and the dissociation constant of NMPP for ferrochelatase was determined using the least-squares fit of each data set to equation 3 by nonlinear regression: […]

In the case of N-methyl protoporphyrin [NMPP], the equilibrium dissociation constant (Kd) (usually the equilibrium constant for the complex coming apart) worked out at 9 ± 5 nM.
